Results reported in ChEMBL document CHEMBL5723582, “Data for DCP probe T-10430” (2024).

Columns and labels:
Details in all cases: Compound concentration 1.0 uM
[1] = molecular target: Alpha-2C adrenergic receptor (Homo sapiens) (UniProt P18825); assay: RLU of ADRA2C at 1.0 µM in the […] PRESTO-Tango GPCRome screen
[2] = molecular target: Type-2 angiotensin II receptor (Homo sapiens) (UniProt P50052); assay: RLU of AGTR2 at 1.0 µM in the […] PRESTO-Tango GPCRome screen
[3] = molecular target: Vasopressin V2 receptor (Homo sapiens) (UniProt P30518); assay: RLU of AVPR2 at 1.0 µM in the […] PRESTO-Tango GPCRome screen
[4] = molecular target: Bombesin receptor subtype-3 (Homo sapiens) (UniProt P32247); assay: RLU of BB3 at 1.0 µM in the […] PRESTO-Tango GPCRome screen
[5] = molecular target: B1 bradykinin receptor (Homo sapiens) (UniProt P46663); assay: RLU of BDKRB1 at 1.0 µM in the […] PRESTO-Tango GPCRome screen
[6] = molecular target: C-C chemokine receptor-like 2 (Homo sapiens) (UniProt O00421); assay: RLU of CCRL2 at 1.0 µM in the […] PRESTO-Tango GPCRome screen
[7] = molecular target: Cannabinoid receptor 1 (Homo sapiens) (UniProt P21554); assay: RLU of CNR1 at 1.0 µM in the […] PRESTO-Tango GPCRome screen
[8] = molecular target: Cysteinyl leukotriene receptor 1 (Homo sapiens) (UniProt Q9Y271); assay: RLU of CYSLTR1 at 1.0 µM in the […] PRESTO-Tango GPCRome screen
[9] = molecular target: Adhesion G protein-coupled receptor L4 (Homo sapiens) (UniProt Q9HBW9); assay: RLU of ELTD1 at 1.0 µM in the […] PRESTO-Tango GPCRome screen
[10] = molecular target: Putative adhesion G protein-coupled receptor F2P (Homo sapiens) (UniProt Q8IZF7); assay: RLU of GPR111 at 1.0 µM in the […] PRESTO-Tango GPCRome screen
[11] = molecular target: Adhesion G protein-coupled receptor A1 (Homo sapiens) (UniProt Q86SQ6); assay: RLU of GPR123 at 1.0 µM in the […] PRESTO-Tango GPCRome screen
[12] = molecular target: Probable G-protein coupled receptor 148 (Homo sapiens) (UniProt Q8TDV2); assay: RLU of GPR148 at 1.0 µM in the […] PRESTO-Tango GPCRome screen
[13] = molecular target: Probable G-protein coupled receptor 153 (Homo sapiens) (UniProt Q6NV75); assay: RLU of GPR153 at 1.0 µM in the […] PRESTO-Tango GPCRome screen
[14] = molecular target: G-protein coupled receptor 37-like 1 (Homo sapiens) (UniProt O60883); assay: RLU of GPR37L1 at 1.0 µM in the […] PRESTO-Tango GPCRome screen
[15] = molecular target: G-prodeshotein coupled receptor 4 (Homo sapiens) (UniProt P46093); assay: RLU of GPR4 at 1.0 µM in the […] PRESTO-Tango GPCRome screen
[16] = molecular target: Prostaglandin D2 receptor 2 (Homo sapiens) (UniProt Q9Y5Y4); assay: RLU of GPR44 at 1.0 µM in the […] PRESTO-Tango GPCRome screen
[17] = molecular target: C5a anaphylatoxin chemotactic receptor 2 (Homo sapiens) (UniProt Q9P296); assay: RLU of GPR77 at 1.0 µM in the […] PRESTO-Tango GPCRome screen
[18] = molecular target: G-protein coupled receptor 87 (Homo sapiens) (UniProt Q9BY21); assay: RLU of GPR87 at 1.0 µM in the […] PRESTO-Tango GPCRome screen
[19] = molecular target: Histamine H2 receptor (Homo sapiens) (UniProt P25021); assay: RLU of HRH2 at 1.0 µM in the Aequorin PRESTO-Tango GPCRome screen
[20] = molecular target: Histamine H4 receptor (Homo sapiens) (UniProt Q9H3N8); assay: RLU of HRH4 at 1.0 µM in the Aequorin PRESTO-Tango GPCRome screen
[21] = molecular target: 5-hydroxytryptamine receptor 1F (Homo sapiens) (UniProt P30939); assay: RLU of HTR1F at 1.0 µM in the […] PRESTO-Tango GPCRome screen
[22] = molecular target: 5-hydroxytryptamine receptor 2A (Homo sapiens) (UniProt P28223); assay: RLU of HTR2A at 1.0 µM in the […] PRESTO-Tango GPCRome screen
[23] = molecular target: 5-hydroxytryptamine receptor 6 (Homo sapiens) (UniProt P50406); assay: RLU of HTR6 at 1.0 µM in the […] PRESTO-Tango GPCRome screen
[24] = molecular target: Lutropin-choriogonadotropic hormone receptor (Homo sapiens) (UniProt P22888); assay: RLU of LHCGR at 1.0 µM in the […] PRESTO-Tango GPCRome screen
[25] = molecular target: Lysophosphatidic acid receptor 1 (Homo sapiens) (UniProt Q92633); assay: RLU of LPAR1 at 1.0 µM in the […] PRESTO-Tango GPCRome screen
[26] = molecular target: Mas-related G-protein coupled receptor member G (Homo sapiens) (UniProt Q86SM5); assay: RLU of MRGPRG at 1.0 µM in the […] PRESTO-Tango GPCRome screen
[27] = molecular target: Neuropeptide FF receptor 2 (Homo sapiens) (UniProt Q9Y5X5); assay: RLU of NPFF2 at 1.0 µM in the […] PRESTO-Tango GPCRome screen
[28] = molecular target: Neuropeptide S receptor (Homo sapiens) (UniProt Q6W5P4); assay: RLU of NPS at 1.0 µM in the […] PRESTO-Tango GPCRome screen
[29] = molecular target: Neuropeptide Y receptor type 5 (Homo sapiens) (UniProt Q15761); assay: RLU of NPY5R at 1.0 µM in the […] PRESTO-Tango GPCRome screen
[30] = molecular target: Kappa-type opioid receptor (Homo sapiens) (UniProt P41145); assay: RLU of OPRK1 at 1.0 µM in the […] PRESTO-Tango GPCRome screen
[31] = molecular target: P2Y purinoceptor 1 (Homo sapiens) (UniProt P47900); assay: RLU of P2RY1 at 1.0 µM in the […] PRESTO-Tango GPCRome screen
[32] = molecular target: P2Y purinoceptor 12 (Homo sapiens) (UniProt Q9H244); assay: RLU of P2RY12 at 1.0 µM in the […] PRESTO-Tango GPCRome screen
[33] = molecular target: Prostaglandin E2 receptor EP3 subtype (Homo sapiens) (UniProt P43115); assay: RLU of PTGER3 at 1.0 µM in the […] PRESTO-Tango GPCRome screen
[34] = molecular target: Somatostatin receptor type 2 (Homo sapiens) (UniProt P30874); assay: RLU of SSTR2 at 1.0 µM in the […] PRESTO-Tango GPCRome screen
[35] = molecular target: Trace amine-associated receptor 1 (Homo sapiens) (UniProt Q96RJ0); assay: RLU of TA1 at 1.0 µM in the […] PRESTO-Tango GPCRome screen

Sequence of Probable G-protein coupled receptor 148 (Homo sapiens) (Q8TDV2 whole entry): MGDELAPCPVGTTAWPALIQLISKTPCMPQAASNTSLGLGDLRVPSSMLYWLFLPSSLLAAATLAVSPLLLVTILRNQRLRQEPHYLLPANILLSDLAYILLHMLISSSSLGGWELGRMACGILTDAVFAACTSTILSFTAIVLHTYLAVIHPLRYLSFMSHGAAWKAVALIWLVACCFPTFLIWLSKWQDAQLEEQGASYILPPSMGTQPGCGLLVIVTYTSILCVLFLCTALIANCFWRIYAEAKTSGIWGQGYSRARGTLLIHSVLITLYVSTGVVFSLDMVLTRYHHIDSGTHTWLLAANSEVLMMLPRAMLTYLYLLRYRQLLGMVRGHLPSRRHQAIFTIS
Sequence of Bombesin receptor subtype-3 (Homo sapiens) (P32247 whole entry): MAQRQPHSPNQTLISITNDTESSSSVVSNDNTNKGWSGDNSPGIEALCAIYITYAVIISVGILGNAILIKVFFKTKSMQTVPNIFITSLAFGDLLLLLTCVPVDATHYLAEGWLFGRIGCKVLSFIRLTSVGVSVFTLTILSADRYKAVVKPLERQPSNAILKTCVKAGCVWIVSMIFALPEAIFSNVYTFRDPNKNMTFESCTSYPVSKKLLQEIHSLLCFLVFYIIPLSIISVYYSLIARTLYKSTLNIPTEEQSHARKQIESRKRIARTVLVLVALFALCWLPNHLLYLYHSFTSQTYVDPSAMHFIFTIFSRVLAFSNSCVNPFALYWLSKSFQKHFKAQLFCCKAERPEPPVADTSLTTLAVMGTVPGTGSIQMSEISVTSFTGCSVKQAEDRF
Sequence of Lysophosphatidic acid receptor 1 (Homo sapiens) (Q92633 whole entry): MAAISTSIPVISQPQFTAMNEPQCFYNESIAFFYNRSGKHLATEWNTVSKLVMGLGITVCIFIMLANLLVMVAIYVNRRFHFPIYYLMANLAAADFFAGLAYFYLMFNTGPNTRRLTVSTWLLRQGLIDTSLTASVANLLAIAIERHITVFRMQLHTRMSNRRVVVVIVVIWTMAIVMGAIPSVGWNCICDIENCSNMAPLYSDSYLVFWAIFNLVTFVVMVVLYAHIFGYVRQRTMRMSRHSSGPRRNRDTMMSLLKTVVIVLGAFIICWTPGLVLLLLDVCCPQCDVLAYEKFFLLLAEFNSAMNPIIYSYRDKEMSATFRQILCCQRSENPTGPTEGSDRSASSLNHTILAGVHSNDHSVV
Sequence of Prostaglandin D2 receptor 2 (Homo sapiens) (Q9Y5Y4 whole entry): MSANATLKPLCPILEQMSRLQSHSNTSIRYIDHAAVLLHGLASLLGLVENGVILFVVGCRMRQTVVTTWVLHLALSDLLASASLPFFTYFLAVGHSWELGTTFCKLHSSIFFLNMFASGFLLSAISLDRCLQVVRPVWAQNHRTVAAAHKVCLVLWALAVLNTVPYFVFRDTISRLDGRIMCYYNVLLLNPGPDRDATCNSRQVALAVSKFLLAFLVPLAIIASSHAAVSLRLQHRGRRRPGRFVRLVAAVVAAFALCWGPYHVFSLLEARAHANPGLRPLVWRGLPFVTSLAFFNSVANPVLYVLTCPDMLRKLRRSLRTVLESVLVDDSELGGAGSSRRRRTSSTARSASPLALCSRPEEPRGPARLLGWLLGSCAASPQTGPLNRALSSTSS
Sequence of B1 bradykinin receptor (Homo sapiens) (P46663 whole entry): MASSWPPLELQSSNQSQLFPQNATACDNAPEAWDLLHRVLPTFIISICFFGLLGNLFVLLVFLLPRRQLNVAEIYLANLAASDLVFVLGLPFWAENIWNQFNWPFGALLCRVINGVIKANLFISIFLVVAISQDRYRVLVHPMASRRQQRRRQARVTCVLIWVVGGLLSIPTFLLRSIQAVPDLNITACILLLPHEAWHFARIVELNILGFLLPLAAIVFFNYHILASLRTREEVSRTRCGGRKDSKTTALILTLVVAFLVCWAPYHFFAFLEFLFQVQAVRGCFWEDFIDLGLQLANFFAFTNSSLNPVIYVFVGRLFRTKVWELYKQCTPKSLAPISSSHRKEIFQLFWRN
Sequence of Neuropeptide Y receptor type 5 (Homo sapiens) (Q15761 whole entry): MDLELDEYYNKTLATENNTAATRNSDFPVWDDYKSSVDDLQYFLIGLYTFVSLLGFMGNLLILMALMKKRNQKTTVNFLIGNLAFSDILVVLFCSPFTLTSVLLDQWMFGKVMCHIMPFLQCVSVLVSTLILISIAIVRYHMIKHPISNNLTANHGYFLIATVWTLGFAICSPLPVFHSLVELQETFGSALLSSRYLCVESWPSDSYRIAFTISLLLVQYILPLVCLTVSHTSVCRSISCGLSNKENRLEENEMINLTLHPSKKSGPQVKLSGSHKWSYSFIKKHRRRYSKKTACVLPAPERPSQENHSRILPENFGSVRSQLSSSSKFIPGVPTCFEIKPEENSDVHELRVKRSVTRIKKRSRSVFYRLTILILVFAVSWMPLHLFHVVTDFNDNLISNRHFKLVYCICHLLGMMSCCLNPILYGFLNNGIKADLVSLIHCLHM
Sequence of Cannabinoid receptor 1 (Homo sapiens) (P21554 whole entry): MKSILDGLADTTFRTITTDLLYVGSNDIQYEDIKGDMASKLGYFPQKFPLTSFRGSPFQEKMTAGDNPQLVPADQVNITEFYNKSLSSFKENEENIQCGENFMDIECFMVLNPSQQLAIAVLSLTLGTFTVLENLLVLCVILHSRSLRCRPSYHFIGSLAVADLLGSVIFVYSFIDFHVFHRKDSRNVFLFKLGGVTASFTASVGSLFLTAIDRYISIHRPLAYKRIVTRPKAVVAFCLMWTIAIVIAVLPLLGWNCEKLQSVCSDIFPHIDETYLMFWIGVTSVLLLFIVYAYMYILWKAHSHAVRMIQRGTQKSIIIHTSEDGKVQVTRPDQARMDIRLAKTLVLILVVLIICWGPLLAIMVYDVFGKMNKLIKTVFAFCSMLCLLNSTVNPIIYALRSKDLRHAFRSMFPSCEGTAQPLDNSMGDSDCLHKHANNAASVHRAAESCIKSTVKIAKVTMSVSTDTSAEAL
Sequence of P2Y purinoceptor 1 (Homo sapiens) (P47900 whole entry): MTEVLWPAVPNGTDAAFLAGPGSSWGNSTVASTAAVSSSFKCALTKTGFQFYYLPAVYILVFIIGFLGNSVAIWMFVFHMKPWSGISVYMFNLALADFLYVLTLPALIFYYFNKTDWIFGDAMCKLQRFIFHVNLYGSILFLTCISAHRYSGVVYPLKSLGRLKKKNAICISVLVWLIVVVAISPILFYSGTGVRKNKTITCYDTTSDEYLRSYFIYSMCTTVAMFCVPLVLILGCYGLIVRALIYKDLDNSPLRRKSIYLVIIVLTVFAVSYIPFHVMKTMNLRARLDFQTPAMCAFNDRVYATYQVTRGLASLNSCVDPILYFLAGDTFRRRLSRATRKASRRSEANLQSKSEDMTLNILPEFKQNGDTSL
Sequence of 5-hydroxytryptamine receptor 2A (Homo sapiens) (P28223 whole entry): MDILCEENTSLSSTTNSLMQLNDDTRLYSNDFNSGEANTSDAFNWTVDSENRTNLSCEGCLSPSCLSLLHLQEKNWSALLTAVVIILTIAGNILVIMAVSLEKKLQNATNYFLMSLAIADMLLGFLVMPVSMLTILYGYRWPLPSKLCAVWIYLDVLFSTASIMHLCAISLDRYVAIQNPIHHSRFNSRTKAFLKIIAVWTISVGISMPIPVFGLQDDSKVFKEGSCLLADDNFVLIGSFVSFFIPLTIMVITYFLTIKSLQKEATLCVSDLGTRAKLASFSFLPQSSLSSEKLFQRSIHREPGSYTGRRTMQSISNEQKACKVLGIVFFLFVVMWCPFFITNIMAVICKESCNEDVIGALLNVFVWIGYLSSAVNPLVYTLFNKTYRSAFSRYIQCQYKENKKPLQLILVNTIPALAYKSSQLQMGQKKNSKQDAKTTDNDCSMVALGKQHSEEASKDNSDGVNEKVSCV
Sequence of Cysteinyl leukotriene receptor 1 (Homo sapiens) (Q9Y271 whole entry): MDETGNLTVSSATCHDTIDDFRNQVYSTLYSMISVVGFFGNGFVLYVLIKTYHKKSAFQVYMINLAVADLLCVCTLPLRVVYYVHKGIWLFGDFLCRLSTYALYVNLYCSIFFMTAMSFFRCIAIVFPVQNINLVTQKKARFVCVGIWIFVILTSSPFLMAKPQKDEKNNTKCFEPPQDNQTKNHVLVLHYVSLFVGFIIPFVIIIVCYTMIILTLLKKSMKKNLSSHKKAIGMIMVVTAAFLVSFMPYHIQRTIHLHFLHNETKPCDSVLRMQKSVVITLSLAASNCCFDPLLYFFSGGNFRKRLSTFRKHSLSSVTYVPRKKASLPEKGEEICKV
Sequence of G-prodeshotein coupled receptor 4 (Homo sapiens) (P46093 whole entry, looked up): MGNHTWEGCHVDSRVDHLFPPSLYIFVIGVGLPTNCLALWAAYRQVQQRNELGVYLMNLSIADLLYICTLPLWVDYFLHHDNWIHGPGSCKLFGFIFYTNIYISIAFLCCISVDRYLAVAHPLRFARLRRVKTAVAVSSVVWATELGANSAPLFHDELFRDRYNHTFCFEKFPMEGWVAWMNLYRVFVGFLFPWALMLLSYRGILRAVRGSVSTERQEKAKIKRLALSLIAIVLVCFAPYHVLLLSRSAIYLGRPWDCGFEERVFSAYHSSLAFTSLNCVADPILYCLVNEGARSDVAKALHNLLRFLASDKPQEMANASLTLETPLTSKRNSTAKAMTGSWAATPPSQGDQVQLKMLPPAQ
Sequence of Somatostatin receptor type 2 (Homo sapiens) (P30874 whole entry): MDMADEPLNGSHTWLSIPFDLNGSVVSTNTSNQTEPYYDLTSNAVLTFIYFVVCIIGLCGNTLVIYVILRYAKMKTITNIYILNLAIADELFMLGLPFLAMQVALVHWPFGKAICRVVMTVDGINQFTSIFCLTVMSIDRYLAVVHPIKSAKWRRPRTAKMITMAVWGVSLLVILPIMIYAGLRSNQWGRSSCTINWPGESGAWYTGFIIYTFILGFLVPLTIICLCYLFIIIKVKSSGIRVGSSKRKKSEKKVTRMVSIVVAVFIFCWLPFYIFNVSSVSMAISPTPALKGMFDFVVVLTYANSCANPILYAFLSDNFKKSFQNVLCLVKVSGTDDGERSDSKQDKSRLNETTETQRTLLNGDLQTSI

Molecule `CCCCC(=O)N1CC2(C1)CN(c1ccccc1-c1nnn[nH]1)C2` has an RLU [1] of 12100, an RLU [2] of 5320 and an RLU [3] of 2870. For the same molecule, the RLU [4] was -2040, the RLU [5] was -3310 and the RLU [6] was -1900. The RLU [7] was -5260, the RLU [8] was 1610 and the RLU [9] was 1170. The RLU [10] was -1360, the RLU [11] was 2100 and the RLU [12] was 3090. It also gave an RLU [13] of -4690, an RLU [14] of 153000 and an RLU [15] of -970. The RLU [16] was -285, the RLU [17] was 351 and the RLU [18] was 8750. The RLU [19] was 84.8, the RLU [20] was -637 and the RLU [21] was -3470. The RLU [22] was -2870, the RLU [23] was 5340 and the RLU [24] was 154. For the same molecule, the RLU [25] was 280, the RLU [26] was -560 and the RLU [27] was -116. For the same molecule, the RLU [28] was 3790, the RLU [29] was -14500 and the RLU [30] was 156. For the same molecule, the RLU [31] was 1690, the RLU [32] was -34.4 and the RLU [33] was 83.2. The RLU [34] was -163 and the RLU [35] was 127.
